Source: US20100197797A1 (priority 2009, published 2010)

Test system: fibromyalgia patients
Assay: Placebo-controlled trials in fibromyalgia patients (safety)
Format: in vivo, human
Settings: for patients with >15 mmHg increase in SBP at the end of the study / patients with DBP increases >10 mmHg at end of study: hypertensive at baseline; for patients with increases in ALT: mild elevations (1-3 times ULN); for patients who became hypertensive at the end of the study (SBP≧140 mmHg or DBP≧90 mmHg): non-hypertensive at baseline; for incidence of suicidal ideation: patients with a history of depression at treatment initiation; for patients who became hypertensive at the end of the study: pre-hypertension at baseline (SBP 120-139 mmHg); for mean weight loss: up to 3 months
Description: The stated frequencies of adverse reactions represent the proportion of individuals who experienced, at least once, a treatment-emergent adverse reaction of the type listed. A reaction was considered treatment emergent if it occurred for the first time or worsened while receiving therapy following baseline evaluation.

[1] = 3-month placebo-controlled trials
[2] = all milnacipran hydrochloride (n = 1557)

## CCN(CC)C(=O)C1(c2ccccc2)CC1CN.Cl (racemic) [milnacipran hydrochloride, (±)-[1R(S),2S(R)]-2-(aminomethyl)-N,N-diethyl-1-phenylcyclopropanecarboxamide hydrochloride]
100 mg/day
  patients who discontinued prematurely due to adverse reactions: 23%
  patients with increases in AST: 3%
  patients with increases in pulse≧20 bpm: 8%
  sustained increases in DBP (≧10 mmHg on 3 consecutive post-baseline visits): 13%
  sustained increases in SBP (≧15 mmHg on three consecutive post-baseline visits): 9%
  patients with >15 mmHg increase in SBP at the end of the study: 7%
  patients with DBP increases >10 mmHg at end of study: 8%
  patients with increases in ALT: 6%
  patients who became hypertensive at the end of the study (SBP≧140 mmHg or DBP≧90 mmHg): 19.5%
  incidence of suicidal ideation: 0%
  patients who became hypertensive at the end of the study: 14%
  mean weight loss: approximately 0.8 kg
100 mg/day (n = 623)
  Adverse reaction incidence: Abdominal pain: 3%
  Adverse reaction incidence: Anxiety: 5%
  Adverse reaction incidence: Blood pressure increased: 3%
  Adverse reaction incidence: Chest discomfort: 2%
  Adverse reaction incidence: Chest pain: 3%
  Adverse reaction incidence: Chills: 1%
  Adverse reaction incidence: Constipation: 16%
  Adverse reaction incidence: Decreased appetite: 1%
  Adverse reaction incidence: Dizziness: 11%
  Adverse reaction incidence: Dry mouth: 5%
  Adverse reaction incidence: Dyspnea: 2%
  Adverse reaction incidence: Flushing: 2%
  Adverse reaction incidence: Headache: 19%
  Adverse reaction incidence: Heart rate increased: 5%
  Adverse reaction incidence: Hot flush: 11%
  Adverse reaction incidence: Hyperhidrosis: 8%
  Adverse reaction incidence: Hypertension: 7%
  Adverse reaction incidence: Hypoesthesia: 1%
  Adverse reaction incidence: Insomnia: 12%
  Adverse reaction incidence: Migraine: 6%
  Adverse reaction incidence: Nausea: 35%
  Adverse reaction incidence: Palpitations: 8%
  Adverse reaction incidence: Paresthesia: 2%
  Adverse reaction incidence: Pruritus: 3%
  Adverse reaction incidence: Rash: 3%
  Adverse reaction incidence: Tachycardia: 3%
  Adverse reaction incidence: Tension headache: 2%
  Adverse reaction incidence: Tremor: 2%
  Adverse reaction incidence: Upper respiratory tract infection: 7%
  Adverse reaction incidence: Vision blurred: 1%
  Adverse reaction incidence: Vomiting: 6%
100 mg/day, one patient
  patients with increase in ALT greater than 5 times (not exceeding 10 times) the upper limit of normal: 0.2%
200 mg/day
  patients who discontinued prematurely due to adverse reactions: 26%
  patients with increases in AST: 5%
  patients with increases in pulse≧20 bpm: 8%
  sustained increases in DBP (≧10 mmHg on 3 consecutive post-baseline visits): 10%
  sustained increases in SBP (≧15 mmHg on three consecutive post-baseline visits): 6%
  patients with >15 mmHg increase in SBP at the end of the study: 2%
  patients with DBP increases >10 mmHg at end of study: 6%
  patients with increases in ALT: 7%
  patients who became hypertensive at the end of the study (SBP≧140 mmHg or DBP≧90 mmHg): 16.6%
  incidence of suicidal ideation: 1.3%
  patients who became hypertensive at the end of the study: 14%
  mean weight loss: approximately 0.8 kg
200 mg/day (n = 934)
  Adverse reaction incidence: Abdominal pain: 3%
  Adverse reaction incidence: Anxiety: 3%
  Adverse reaction incidence: Blood pressure increased: 3%
  Adverse reaction incidence: Chest discomfort: 1%
  Adverse reaction incidence: Chest pain: 2%
  Adverse reaction incidence: Chills: 2%
  Adverse reaction incidence: Constipation: 15%
  Adverse reaction incidence: Decreased appetite: 2%
  Adverse reaction incidence: Dizziness: 10%
  Adverse reaction incidence: Dry mouth: 5%
  Adverse reaction incidence: Dyspnea: 2%
  Adverse reaction incidence: Flushing: 3%
  Adverse reaction incidence: Headache: 17%
  Adverse reaction incidence: Heart rate increased: 6%
  Adverse reaction incidence: Hot flush: 12%
  Adverse reaction incidence: Hyperhidrosis: 9%
  Adverse reaction incidence: Hypertension: 4%
  Adverse reaction incidence: Hypoesthesia: 2%
  Adverse reaction incidence: Insomnia: 12%
  Adverse reaction incidence: Migraine: 4%
  Adverse reaction incidence: Nausea: 39%
  Adverse reaction incidence: Palpitations: 7%
  Adverse reaction incidence: Paresthesia: 3%
  Adverse reaction incidence: Pruritus: 2%
  Adverse reaction incidence: Rash: 4%
  Adverse reaction incidence: Tachycardia: 2%
  Adverse reaction incidence: Tension headache: 1%
  Adverse reaction incidence: Tremor: 2%
  Adverse reaction incidence: Upper respiratory tract infection: 6%
  Adverse reaction incidence: Vision blurred: 2%
  Adverse reaction incidence: Vomiting: 7%
[1]
  mean increase in diastolic blood pressure (DBP): up to 3.1 mm Hg
  mean increase in systolic blood pressure (SBP): up to 3.1 mm Hg
100 vs 200 mg/day
  dose dependence of effect on heart rate: did not appear to increase with increasing dose
[2]
  Adverse reaction incidence: Abdominal pain: 3%
  Adverse reaction incidence: Anxiety: 4%
  Adverse reaction incidence: Blood pressure increased: 3%
  Adverse reaction incidence: Chest discomfort: 1%
  Adverse reaction incidence: Chest pain: 2%
  Adverse reaction incidence: Chills: 2%
  Adverse reaction incidence: Constipation: 16%
  Adverse reaction incidence: Decreased appetite: 2%
  Adverse reaction incidence: Dizziness: 10%
  Adverse reaction incidence: Dry mouth: 5%
  Adverse reaction incidence: Dyspnea: 2%
  Adverse reaction incidence: Flushing: 3%
  Adverse reaction incidence: Headache: 18%
  Adverse reaction incidence: Heart rate increased: 6%
  Adverse reaction incidence: Hot flush: 12%
  Adverse reaction incidence: Hyperhidrosis: 9%
  Adverse reaction incidence: Hypertension: 5%
  Adverse reaction incidence: Hypoesthesia: 1%
  Adverse reaction incidence: Insomnia: 12%
  Adverse reaction incidence: Migraine: 5%
  Adverse reaction incidence: Nausea: 37%
  Adverse reaction incidence: Palpitations: 7%
  Adverse reaction incidence: Paresthesia: 2%
  Adverse reaction incidence: Pruritus: 2%
  Adverse reaction incidence: Rash: 3%
  Adverse reaction incidence: Tachycardia: 2%
  Adverse reaction incidence: Tension headache: 1%
  Adverse reaction incidence: Tremor: 2%
  Adverse reaction incidence: Upper respiratory tract infection: 6%
  Adverse reaction incidence: Vision blurred: 2%
  Adverse reaction incidence: Vomiting: 7%
Clinical trials
  elevated transaminases vs placebo: more patients treated with milnacipran hydrochloride developed elevated transaminases
  risk of mydriasis: increased risk of mydriasis
Controlled fibromyalgia trials
  incidence of dysuria: 1%
Each of dysuria, ejaculation disorder, erectile dysfunction, ejaculation failure, libido decreased, prostatitis, scrotal pain, testicular pain, testicular swelling, urinary hesitation, urinary retention, urethral pain, urine flow decreased, rate greater than placebo
  incidence of genitourinary adverse reactions in male patients: at least 2%
Fibromyalgia clinical trials
  increases of bilirubin: not clinically significant
human, in vivo
  cases of ALT>3×ULN associated with bilirubin≧2×ULN: No case
  most common adverse reactions (incidence≧5% and twice placebo): constipation, hot flush, hyperhidrosis, vomiting, palpitations, heart rate increased, dry mouth, and hypertension
  most frequently occurring adverse reaction: nausea
short-term or longer-term (up to 1 year) fibromyalgia trials
  suicides: No suicides occurred
Trials excluded current major depressive episode
  activation of mania or hypomania: No activation of mania or hypomania was reported
